In ChEMBL document CHEMBL1201862, “PubChem BioAssay data set” (2004):
Activity calls are given as the source filed them.

Key:
[1] = A Cell Based Secondary Assay To Explore Cytotoxicity of Compounds that Sensitize Mycobacterium Tuberculosis to Beta-Lactam Antibiotics.; type: functional
[2] = NIH-3T3 fibroblast cytotoxicity, dose response, cytotoxicity control, cell-based, fluorescence, Alamar Blue, secondary assay (AID 2327); type: functional;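 note: NIH-3T3 mouse fibroblasts cultured with fluconazole at 8 µg/mL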
[3] = inhibitors of firefly luciferase expression or activity, dose response, H4 neuroglioma cells, luminescence (AID 1990); type: functional, cell-based
[4] = Luminescence Cell-Based Dose Response HTS to Identify Inhibitors of 5'UTR Stem-Loop Driven Prion Protein mRNA Translation in H4 Neuroglioblastoma Cells. [Related pubchem assays: 1827 (Project Summary), 1813 (Primary HTS)]; type: functional
[5] = inhibitors of SNCA 5'UTR-driven reporter translation, confirmation, H4 neuroglioma cells, luminescence (AID 1988); type: functional, cell-based
[6] = C. albicans growth with fluconazole, confirmation, fluorescence, retest (AID 2467); type: functional, cell-based
[7] = molecular target: Voltage-gated inwardly rectifying potassium channel KCNH2 (Homo sapiens, UniProt Q12809); assay: hERG protection from proarrhythmic block, potency, dose response, cell-based, thallium flux (AID 2121); type: ADME
Exodeoxyribonuclease V = Exodeoxyribonuclease V (Escherichia coli (strain K12), UniProt P04993+P07648+P08394); assay: E. coli RecBCD inhibitors, dose response, counter-screen for AddAB inhibitor project, absorbance, V66 E. coli, mutant T4 phage (AID 492957); type: functional, cell-based, Escherichia coli str. K-12 substr. MG1655
[8] = Luminescence Cell-Based Dose Retest to Confirm Inhibitors of Cancer Stem Cells. [Related pubchem assays (depositor defined):AID2717, AID2721]; type: functional; conditions: Homo sapiens
[9] = Counterscreen for AddAB inhibitors: absorbance-based bacterial cell-based high throughput dose response assay for inhibitors of bacterial viability. [Related pubchem assays (depositor defined):AID435030, AID449728, AID449731, AID488942, AID488955, AID488956]; type: functional
[10] = Shn3 3'UTR reporter inhibitors, dose response, cell-based, Clone20 osteoblasts, firefly luciferase, cherry-picked (AID 624132); type: functional;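 note: firefly luciferase luminescence from reporter carrying the Shn3 3'UTR in osteoblasts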
[11] = HepG2 cell cytotoxicity, dose response, cytotoxicity control for Shn3 inhibitor project, CellTiter-Glo, cherry-picked (AID 624134); type: functional, cell-based
[12] = control 3'UTR Renilla luciferase suppression, dose response, counter-screen for Shn3 inhibitor project, cell-based, Clone20-Shn3RL, cherry-picked (AID 624133); type: functional
Cytochrome P450 2D6 = Cytochrome P450 2D6 (Homo sapiens, UniProt P10635);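 note: CYP2D6 member of a cytochrome P450 panel assay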
Cytochrome P450 1A2 = molecular target: T1, Cytochrome P450 1A2 (Homo sapiens, UniProt P05177);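 note: PubChem cytochrome P450 panel assay, CYP1A2 panel member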
T1 sequence (P05177 whole entry): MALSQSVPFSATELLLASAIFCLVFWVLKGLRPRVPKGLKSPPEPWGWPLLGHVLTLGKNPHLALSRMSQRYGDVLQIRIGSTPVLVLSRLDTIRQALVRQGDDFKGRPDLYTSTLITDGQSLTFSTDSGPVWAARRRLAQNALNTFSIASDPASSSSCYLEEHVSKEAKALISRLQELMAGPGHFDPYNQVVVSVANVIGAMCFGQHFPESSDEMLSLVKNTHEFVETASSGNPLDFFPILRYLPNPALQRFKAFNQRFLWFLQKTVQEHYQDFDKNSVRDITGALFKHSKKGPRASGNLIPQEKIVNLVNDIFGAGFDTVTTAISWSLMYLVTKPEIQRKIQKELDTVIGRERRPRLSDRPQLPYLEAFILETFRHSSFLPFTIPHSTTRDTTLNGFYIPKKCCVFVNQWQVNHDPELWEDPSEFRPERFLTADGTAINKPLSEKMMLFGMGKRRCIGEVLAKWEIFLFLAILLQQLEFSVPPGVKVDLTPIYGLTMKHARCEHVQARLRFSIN

[13] = molecular target: Neuropeptide Y receptor type 1 (Homo sapiens, UniProt P25929); type: functional;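 note: HEK293 cells with a CNG channel challenged with NPY then isoproterenol; potency as antagonist that reverses NPY suppression of cAMP signal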
[14] = molecular target: Neuropeptide Y receptor type 2 (Homo sapiens, UniProt P49146); type: functional, cell-based;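 note: HEK293 cells expressing the receptor and a CNG channel; stimulus was NPY near EC95 followed by isoproterenol to raise cAMP; antagonist potency measured as restoring cAMP signal that NPY suppresses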
[15] = test system: Streptococcus sp. 'group A'; assay: growth inhibition of control SK(-) GAS strain, dose response, counter-screen for streptokinase expression inhibitor project, luminescence, kanamycin, BacTiterGlo, confirmation (AID 1900); type: functional, organism-based
Streptokinase A = molecular target: T2, Streptokinase A (Streptococcus pyogenes serotype M1, UniProt P10520); assay: S. pyogenes streptokinase expression inhibitors, potency, dose response, plasminogen activation absorbance, OD405 (AID 1914); type: functional, Streptococcus pyogenes M1 GAS;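 note: secreted streptokinase activity via plasminogen activation per viability signal from cell pellet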
T2 sequence (P10520 whole entry): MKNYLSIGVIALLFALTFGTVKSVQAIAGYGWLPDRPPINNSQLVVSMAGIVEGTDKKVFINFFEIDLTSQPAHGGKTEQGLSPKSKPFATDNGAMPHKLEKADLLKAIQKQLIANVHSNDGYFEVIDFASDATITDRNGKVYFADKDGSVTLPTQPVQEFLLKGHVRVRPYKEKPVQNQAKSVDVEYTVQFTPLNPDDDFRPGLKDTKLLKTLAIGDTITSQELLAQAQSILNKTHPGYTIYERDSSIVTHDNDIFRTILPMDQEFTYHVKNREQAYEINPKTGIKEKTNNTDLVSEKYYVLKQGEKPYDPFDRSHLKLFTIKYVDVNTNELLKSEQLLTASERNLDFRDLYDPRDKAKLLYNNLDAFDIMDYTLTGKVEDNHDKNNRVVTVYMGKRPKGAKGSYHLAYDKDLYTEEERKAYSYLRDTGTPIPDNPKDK

[16] = HIV-1 Env-mediated cell fusion inhibitors, dose response, CCR5-tropic Env (AID 2279); type: functional
[17] = molecular target: Induced myeloid leukemia cell differentiation protein Mcl-1 (Homo sapiens, UniProt Q07820); type: functional
Streptococcus = assay: Group A Streptococcus viability loss, dose response, counter-screen for streptokinase expression inhibitor project, luminescence, BacTiterGlo (AID 1915); type: functional, organism-based;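 note: potency for reduction of bacterial viability or growth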
[18] = molecular target: Mothers against decapentaplegic homolog 3 (Homo sapiens, UniProt P84022); assay: Smad3 binding inhibitors, lysate ELISA, dose response, cell lysate, secondary confirmation, chemiluminescent ELISA, HEK293 lysate (AID 1058); type: functional
[19] = molecular target: T3, Luciferin 4-monooxygenase (Photinus pyralis, UniProt P08659); assay: Counter Screen for Luciferase-based Assay Positives. [Related pubchem assays: 620, 618, 411 ]
[20] = molecular target: T3, Luciferin 4-monooxygenase; assay: firefly luciferase enzyme inhibitors, dose response, biochemical, luminescence (AID 1891)
[21] = Luminescence Cell-Based Dose Confirmation HTS to Identify Inhibitors of Platelet Dense Granule Release. [Related pubchem assays: 1663 (Primary HTS), 1678 (Summary of Project)]; type: functional
HT-1080 = assay: cytotoxicity in HT1080 fibrosarcoma cells, cell-based, fluorescence readout (AID 620); type: functional; conditions: Homo sapiens
Protein skinhead-1 = molecular target: T4, Protein skinhead-1 (Caenorhabditis elegans, UniProt P34707); type: functional
T4 sequence (P34707 whole entry): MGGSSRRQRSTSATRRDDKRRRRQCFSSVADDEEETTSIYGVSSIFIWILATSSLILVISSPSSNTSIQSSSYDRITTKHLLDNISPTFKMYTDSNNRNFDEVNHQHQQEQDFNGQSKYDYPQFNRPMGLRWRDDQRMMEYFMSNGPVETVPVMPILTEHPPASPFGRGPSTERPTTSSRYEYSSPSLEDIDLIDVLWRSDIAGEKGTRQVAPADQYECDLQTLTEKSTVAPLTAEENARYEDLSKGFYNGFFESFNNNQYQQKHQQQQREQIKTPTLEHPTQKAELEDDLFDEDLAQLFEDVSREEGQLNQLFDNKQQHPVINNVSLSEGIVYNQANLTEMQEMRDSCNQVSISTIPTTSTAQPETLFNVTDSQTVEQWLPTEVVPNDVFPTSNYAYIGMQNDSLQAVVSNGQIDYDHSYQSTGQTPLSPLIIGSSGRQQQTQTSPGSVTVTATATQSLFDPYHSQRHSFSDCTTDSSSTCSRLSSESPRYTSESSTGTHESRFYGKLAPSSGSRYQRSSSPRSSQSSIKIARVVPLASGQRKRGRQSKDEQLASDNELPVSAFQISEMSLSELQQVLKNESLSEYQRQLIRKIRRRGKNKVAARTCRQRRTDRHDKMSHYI

T3 sequence (P08659 whole entry): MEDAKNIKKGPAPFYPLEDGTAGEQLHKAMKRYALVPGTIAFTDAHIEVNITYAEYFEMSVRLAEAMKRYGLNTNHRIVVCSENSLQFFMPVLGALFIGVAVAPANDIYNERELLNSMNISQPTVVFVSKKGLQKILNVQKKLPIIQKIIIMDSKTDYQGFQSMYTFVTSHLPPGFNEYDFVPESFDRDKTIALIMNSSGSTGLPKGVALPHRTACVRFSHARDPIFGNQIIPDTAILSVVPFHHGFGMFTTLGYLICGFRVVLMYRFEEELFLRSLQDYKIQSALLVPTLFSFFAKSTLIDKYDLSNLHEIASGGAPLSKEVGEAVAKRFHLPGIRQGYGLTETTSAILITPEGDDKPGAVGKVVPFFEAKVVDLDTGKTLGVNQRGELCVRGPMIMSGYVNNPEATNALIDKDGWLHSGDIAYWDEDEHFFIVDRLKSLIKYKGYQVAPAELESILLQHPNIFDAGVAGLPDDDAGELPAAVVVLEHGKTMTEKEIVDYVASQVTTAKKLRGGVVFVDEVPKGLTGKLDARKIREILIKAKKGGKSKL
Sequence of Neuropeptide Y receptor type 2 (P49146 whole entry): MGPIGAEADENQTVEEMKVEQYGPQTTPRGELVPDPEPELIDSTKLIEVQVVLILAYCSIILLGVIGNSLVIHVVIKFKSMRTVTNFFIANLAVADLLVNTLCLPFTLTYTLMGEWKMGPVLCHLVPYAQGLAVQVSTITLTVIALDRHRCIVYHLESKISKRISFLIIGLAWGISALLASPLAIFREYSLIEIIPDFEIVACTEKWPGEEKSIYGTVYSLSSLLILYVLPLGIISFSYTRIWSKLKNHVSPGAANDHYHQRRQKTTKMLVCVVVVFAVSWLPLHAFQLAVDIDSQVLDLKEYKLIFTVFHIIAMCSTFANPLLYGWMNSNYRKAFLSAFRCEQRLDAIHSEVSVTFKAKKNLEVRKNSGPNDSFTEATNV
Sequence of Voltage-gated inwardly rectifying potassium channel KCNH2 (Q12809 whole entry): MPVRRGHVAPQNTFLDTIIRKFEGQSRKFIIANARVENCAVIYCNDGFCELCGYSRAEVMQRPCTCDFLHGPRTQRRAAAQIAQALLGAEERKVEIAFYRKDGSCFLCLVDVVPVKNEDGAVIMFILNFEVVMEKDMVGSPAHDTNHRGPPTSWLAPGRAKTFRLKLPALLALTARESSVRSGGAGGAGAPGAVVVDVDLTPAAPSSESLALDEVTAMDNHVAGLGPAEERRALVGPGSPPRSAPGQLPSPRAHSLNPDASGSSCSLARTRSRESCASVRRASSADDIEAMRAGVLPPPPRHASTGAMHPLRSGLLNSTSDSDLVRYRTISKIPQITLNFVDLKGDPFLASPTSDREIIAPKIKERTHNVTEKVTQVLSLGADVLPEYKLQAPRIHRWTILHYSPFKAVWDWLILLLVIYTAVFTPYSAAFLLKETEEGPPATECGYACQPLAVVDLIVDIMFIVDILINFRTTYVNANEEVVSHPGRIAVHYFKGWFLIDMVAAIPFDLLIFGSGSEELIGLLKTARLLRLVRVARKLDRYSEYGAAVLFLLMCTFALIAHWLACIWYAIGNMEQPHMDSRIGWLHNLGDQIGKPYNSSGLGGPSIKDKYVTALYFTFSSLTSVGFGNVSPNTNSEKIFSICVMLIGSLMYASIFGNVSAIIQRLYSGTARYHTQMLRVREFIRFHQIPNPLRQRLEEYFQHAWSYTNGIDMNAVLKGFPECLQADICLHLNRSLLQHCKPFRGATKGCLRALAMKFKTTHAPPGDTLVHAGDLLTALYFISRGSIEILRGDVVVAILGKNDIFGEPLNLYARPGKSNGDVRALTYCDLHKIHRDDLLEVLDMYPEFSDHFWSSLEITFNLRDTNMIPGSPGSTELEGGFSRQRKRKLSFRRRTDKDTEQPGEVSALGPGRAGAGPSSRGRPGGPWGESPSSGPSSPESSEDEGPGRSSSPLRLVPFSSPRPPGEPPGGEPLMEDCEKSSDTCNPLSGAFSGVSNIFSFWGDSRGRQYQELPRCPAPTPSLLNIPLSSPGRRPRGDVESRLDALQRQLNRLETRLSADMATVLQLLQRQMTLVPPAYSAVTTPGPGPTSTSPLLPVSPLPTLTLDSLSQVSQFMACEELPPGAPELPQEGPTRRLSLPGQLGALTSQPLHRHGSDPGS
Sequence of Induced myeloid leukemia cell differentiation protein Mcl-1 (Q07820 whole entry): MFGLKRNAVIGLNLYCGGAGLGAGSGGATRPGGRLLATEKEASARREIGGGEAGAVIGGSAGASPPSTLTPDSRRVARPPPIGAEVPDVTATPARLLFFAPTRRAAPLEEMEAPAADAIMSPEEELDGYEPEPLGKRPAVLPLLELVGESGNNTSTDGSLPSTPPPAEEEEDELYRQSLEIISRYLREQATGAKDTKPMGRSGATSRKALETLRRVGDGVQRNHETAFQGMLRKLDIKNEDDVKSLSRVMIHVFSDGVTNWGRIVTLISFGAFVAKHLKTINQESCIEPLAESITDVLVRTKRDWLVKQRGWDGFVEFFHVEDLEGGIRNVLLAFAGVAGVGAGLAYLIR
Sequence of Neuropeptide Y receptor type 1 (P25929 whole entry): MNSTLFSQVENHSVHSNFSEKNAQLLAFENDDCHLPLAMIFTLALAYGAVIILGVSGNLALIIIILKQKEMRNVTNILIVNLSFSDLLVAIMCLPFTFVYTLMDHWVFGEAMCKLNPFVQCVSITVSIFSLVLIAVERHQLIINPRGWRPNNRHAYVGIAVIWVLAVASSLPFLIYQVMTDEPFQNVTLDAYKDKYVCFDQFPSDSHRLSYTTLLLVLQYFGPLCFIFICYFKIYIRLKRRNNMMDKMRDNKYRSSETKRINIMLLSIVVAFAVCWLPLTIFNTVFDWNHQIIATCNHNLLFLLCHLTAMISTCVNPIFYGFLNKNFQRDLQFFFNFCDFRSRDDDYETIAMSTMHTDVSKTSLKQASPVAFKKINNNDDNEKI
Sequence of Mothers against decapentaplegic homolog 3 (P84022 whole entry): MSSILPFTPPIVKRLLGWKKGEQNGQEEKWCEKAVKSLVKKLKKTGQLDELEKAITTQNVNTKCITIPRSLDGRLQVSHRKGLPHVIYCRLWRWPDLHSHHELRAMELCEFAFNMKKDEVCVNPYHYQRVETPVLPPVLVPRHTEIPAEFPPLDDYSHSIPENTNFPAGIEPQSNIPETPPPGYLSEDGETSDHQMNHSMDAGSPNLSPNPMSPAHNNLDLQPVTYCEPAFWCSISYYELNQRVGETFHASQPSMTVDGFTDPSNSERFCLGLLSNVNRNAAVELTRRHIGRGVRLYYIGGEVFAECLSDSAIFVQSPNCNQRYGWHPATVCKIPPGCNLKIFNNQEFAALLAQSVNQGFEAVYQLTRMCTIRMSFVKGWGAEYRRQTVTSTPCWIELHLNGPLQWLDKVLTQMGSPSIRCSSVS
Sequence of Cytochrome P450 2D6 (P10635 whole entry): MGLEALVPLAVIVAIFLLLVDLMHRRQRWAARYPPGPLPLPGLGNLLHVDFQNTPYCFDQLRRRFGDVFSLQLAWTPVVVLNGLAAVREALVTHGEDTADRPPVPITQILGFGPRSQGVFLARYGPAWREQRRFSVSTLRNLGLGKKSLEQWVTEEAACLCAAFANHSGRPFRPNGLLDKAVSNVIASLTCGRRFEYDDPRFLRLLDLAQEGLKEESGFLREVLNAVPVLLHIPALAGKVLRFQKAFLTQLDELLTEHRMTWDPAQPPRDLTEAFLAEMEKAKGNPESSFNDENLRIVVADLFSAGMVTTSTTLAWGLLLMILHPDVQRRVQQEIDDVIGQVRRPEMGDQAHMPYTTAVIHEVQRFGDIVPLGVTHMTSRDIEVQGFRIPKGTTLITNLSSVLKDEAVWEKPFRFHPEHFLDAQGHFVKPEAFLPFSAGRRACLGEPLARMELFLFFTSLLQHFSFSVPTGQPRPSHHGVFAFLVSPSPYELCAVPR

In the case of `COc1ccc2c(c1)c(C(C)=O)c(C)n2-c1ccccc1`, the CC50 [1] was > 40 µM (active).
In the case of `Cc1cc([N+](=O)[O-])ccc1-c1ccc(C2Nc3ccccc3C(=O)N2O)o1` (stereo not drawn), the EC50 [2] was > 160 µM (inconclusive), the EC50 [3] was 10.3 µM (active) and the EC50 [4] was 10.4 µM (active). The EC50 [5] was 8.61 µM (active), the EC50 [6] was 1.31 µM (active) and the EC50 [7] was 2.58 µM (active). The IC50 (Exodeoxyribonuclease V) was > 119 µM (inactive), the AC50 [8] was 5.3 µM (active) and the IC50 [9] was > 119 µM (inactive). The AC50 [10] was 3.32 µM (active), the AC50 [11] was 32.9 µM (active) and the AC50 [12] was 11.3 µM (active). For the same compound, the AC50 (Cytochrome P450 2D6) was 20 µM (inconclusive) and the AC50 (Cytochrome P450 1A2) was 25.1 µM (inconclusive).
In the case of `COc1ccc(-c2nc(C#N)c(NC(C)c3ccccc3)o2)cc1OC` (stereo not drawn), the IC50 [13] was 7.77 µM (active) and the IC50 [14] was 3.55 µM (active).
With `CC1(c2ccccc2)CC(C)(C)N2C(=O)/C(=C3\SC(=S)NC3=O)c3cccc1c32` (stereo not drawn) the EC50 [15] was 0.435 µM (active), the EC50 (Streptokinase A) was > 150 µM (not active) and the IC50 [16] was 9.92 µM (active). For the same compound, the IC50 [17] was 1.18 µM (active) and the EC50 (Streptococcus) was 3.08 µM (active).
In the case of `Oc1cc2c(cc1C(c1ccc(Cl)cc1)N1CCOCC1)OCO2` (stereo not drawn), the IC50 [18] was 10.3 µM (not active).
For `Nc1ccc2nc(-c3ccccc3)sc2c1`, the EC50 [19] was 23.5 µM (active), the EC50 [20] was 0.958 µM (active) and the EC50 [21] was 2.44 µM (active). The EC50 (HT-1080) was > 50 µM (not active) and the IC50 (Protein skinhead-1) was 55.9 µM (inactive).
